Experimental data from patent publication US11944624B2, “Peptide and small molecule agonists of EphA and their uses” (CASE WESTERN RESERVE UNIVERSITY, priority 2017, dated 2024).
“Also recorded” adds a separate entry of the source.

Assays:
[1] = molecular target: T1, EphA2 (Homo sapiens, UniProt P29317); assay: EphA2 activation in MDA-MB-231-A2 cells (phosphorylated/total EphA2, Example 2); format: cell-based; set-up: expressed in transfected cells; host or cells: MDA-MB-231 (MDA-231-A2 / MDA-MB-231-A2), puromycin selected; details: MDA-MB-231-A2 cells, 2, 10 and 50 μM, 30 min
Procedure: To evaluate the compounds, we utilized a MDA-MB-231 breast cancer cell line which overexpresses EphA2 receptor (MDA-MB-231-A2). The ratio of phosphorylated EphA2 protein over total EphA2 protein was measured after treatment with the various compounds as the readout for receptor activation. All the compounds were examined with doses of 2, 10, and 50 μM, and we used 50 μM Doxazosin and 0.5% DMSO as the positive and negative control, respectively (FIG. 27). […] Inspired by the dimer design, we also generated dimer structure based on the piperazine ring as the core as illustrated by compounds 25 and 26.
MDA-MB-231 EphA2-overexpressing cells were plated in 12-well dishes at a density of 100,000 cells/well and grown for 24 hours prior to stimulation with appropriate compounds and ephrins for 30 min and 10 min, respectively. Compounds were prepared in DMSO at 200 times the final concentrations and 0.5% DMSO was used as vehicle control. Following treatment, cells were washed and lysed in modified RIPA Buffer (20 mM Tris-HCl pH 7.4, 20 mM NaF, 150 mM NaCl, 10% glycerol, 0.1% SDS, 0.5% DCA, 2 mM EDTA, 1% Triton X-100, 2 mM Na3VO4, and protease inhibitors, including 1 mM phenylmethylsulphonyl fluoride, and 2 μg/ml each of aprotinin and leupeptin) for 20 min, followed by immunoprecipitation. For immunoprecipitation, lysates were combined with 10 μg of ephrin-A1-Fc and 10-15 μl of Gamma-Bind Protein G beads (GE Healthcare Bioscience, Pittsburgh, PA) and rotated for 3 hours at 4° C. 10 μg of human unconjugated Fc was used as a negative control. Beads were pelleted at 9,000 rpm for 2 min at 4° C., and washed twice with 1 ml of IP Wash Buffer (20 mM Tris, pH 7.4, 10% glycerol, 50 mM NaCl, 0.2% Triton X-100, 0.5 mM Na3VO4, 0.5 mM PMSF). All wash buffer was removed and beads were resuspended in 25 μl of 4× LDS Loading Buffer (Thermo Fisher, Grand Island, NY) with 4 μl of 10× Bolt Sample Reducing Agent (Thermo Fisher), followed by Western Blotting. Samples were boiled 5 min and run on 4-12% Bis-Tris Plus gels (Thermo Fisher), followed by transfer to Immobilon-P PVDF membranes (Millipore, Billerica, MA). Membranes were blocked 1 hr at room temperature in 3% BSA in TBS containing 0.05% Tween-20 (TBS-T) followed by overnight incubation with pEphA/B (1:500) and EphA2 (Santa Cruz) (1:1000) primary antibodies. Membranes were washed in TBS-T and incubated with goat anti-rabbit-HRP (1:5000) secondary antibody 1 hr at room temperature, followed by washing and developing with Luminol Reagent (Santa Cruz). Band intensities were quantified using Quantity One software (Bio-Rad, Hercules, CA).

[2] = tested on: MDA-MB-231 cells; assay: Clonogenic (colony formation) assay; format: cell-based; details: 0.08-10 μM, 14 days
Procedure: MDA-MB-231 cells (1000 cells/well) were seeded in 12-well plates and cultured for 24 h, followed by treatment with various concentrations of the Doxazosin analogs (0, 0.08, 0.4, 2 and 10 μM) in 0.5% DMSO for 14 days. After washing with PBS, colonies were fixed in 4% paraformaldehyde in PBS, washed in 20% methanol, and stained with 0.5% crystal violet.

[3] = molecular target: T2, rat α1a adrenergic receptor (Rattus norvegicus, UniProt P43140); assay: Adrenoceptor binding, [3H]-prazosin competition; details: [3H]-prazosin 0.25 nM, triplicate, mean±SD; read-out: IC50, α-adrenoceptor binding
T2 construct: Eurofins Panlabs Taiwan, Ltd. (contract assay)
T2 sequence (P43140 1-466): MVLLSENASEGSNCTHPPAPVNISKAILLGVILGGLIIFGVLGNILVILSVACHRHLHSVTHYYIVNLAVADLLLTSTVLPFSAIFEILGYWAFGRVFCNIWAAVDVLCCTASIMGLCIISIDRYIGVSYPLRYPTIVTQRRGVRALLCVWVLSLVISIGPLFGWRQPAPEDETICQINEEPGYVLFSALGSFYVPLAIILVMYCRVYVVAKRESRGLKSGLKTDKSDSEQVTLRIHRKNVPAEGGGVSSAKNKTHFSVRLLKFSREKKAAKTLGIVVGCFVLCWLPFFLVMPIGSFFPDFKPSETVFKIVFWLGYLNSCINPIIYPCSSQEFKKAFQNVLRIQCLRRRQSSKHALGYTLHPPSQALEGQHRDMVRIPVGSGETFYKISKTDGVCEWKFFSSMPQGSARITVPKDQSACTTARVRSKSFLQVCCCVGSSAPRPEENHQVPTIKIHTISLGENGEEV
Procedure: Analysis of Doxazosin and analog binding to rat α1a adrenergic receptor was performed by Eurofins Panlabs Taiwan, Ltd. (Taiwan). [^3H]-prazosin at 0.25 nM was used as the radioligand. […] Non-specific binding was defined by use of 10 μM phentolamine. Incubations were terminated by vacuum filtration over 0.1% PEI pretreated glass fiber filters and filters were washed for 10 s with ice cold 0.1M NaCl and radioactivity retained on the filters was determined by liquid scintillation spectrometry. IC50 values were determined by a non-linear regression analysis using GraphPad Prism v.5 (GraphPad).

[4] = molecular target: T1, EphA2; assay: EphA2 internalization in MDA-MB-231 cells (immunofluorescence, Example 2); format: cell-based; set-up: expressed in transfected cells; host or cells: MDA-MB-231 (MDA-231-A2 / MDA-MB-231-A2), puromycin selected; details: 1 hr, doses 0.4, 2, 10, 50 μM
Procedure: This was performed using the MDA-MB-231 cell line. This cell line spreads well in culture, thereby facilitating immunofluorescence detection of cell surface and intracellular EphA2 (FIG. 28). […] MDA-MB-231 cells were plated in 24-well plates on 10 mm square coverslips coated with 10 μg/ml fibronectin and incubated 24-48 hrs before treatment with 50 μM Doxazosin and various doses of compound 27 (0.4, 2, 10, 50 μM) in 0.5% DMSO for 1 hr. As another positive control, cells were treated with 2 μg/ml ephrin-A1-Fc. Cells were then washed with PBS and fixed with 4% paraformaldehyde (Electron Microscopy Sciences, Hatfield, PA) on ice for 10 min, followed by washing and permeabilization with 0.4% NP-40 for 10 min on ice. […] Cells were then incubated in primary mouse EphA2 antibody (D7, 1:100) in 0.1% BSA/PBS for 1 hr at room temperature, washed in PBS and BSA/PBS, followed by incubation in secondary donkey anti-mouse Alexa Fluor 488 antibody (1:300) in BSA/PBS for 30 min at room temperature. Cells were washed in PBS and BSA/PBS, followed by mounting in DAPI Mounting Medium (Electron Microscopy Sciences). Images were taken with a Leica microscope.

T1 sequence (P29317 24-976): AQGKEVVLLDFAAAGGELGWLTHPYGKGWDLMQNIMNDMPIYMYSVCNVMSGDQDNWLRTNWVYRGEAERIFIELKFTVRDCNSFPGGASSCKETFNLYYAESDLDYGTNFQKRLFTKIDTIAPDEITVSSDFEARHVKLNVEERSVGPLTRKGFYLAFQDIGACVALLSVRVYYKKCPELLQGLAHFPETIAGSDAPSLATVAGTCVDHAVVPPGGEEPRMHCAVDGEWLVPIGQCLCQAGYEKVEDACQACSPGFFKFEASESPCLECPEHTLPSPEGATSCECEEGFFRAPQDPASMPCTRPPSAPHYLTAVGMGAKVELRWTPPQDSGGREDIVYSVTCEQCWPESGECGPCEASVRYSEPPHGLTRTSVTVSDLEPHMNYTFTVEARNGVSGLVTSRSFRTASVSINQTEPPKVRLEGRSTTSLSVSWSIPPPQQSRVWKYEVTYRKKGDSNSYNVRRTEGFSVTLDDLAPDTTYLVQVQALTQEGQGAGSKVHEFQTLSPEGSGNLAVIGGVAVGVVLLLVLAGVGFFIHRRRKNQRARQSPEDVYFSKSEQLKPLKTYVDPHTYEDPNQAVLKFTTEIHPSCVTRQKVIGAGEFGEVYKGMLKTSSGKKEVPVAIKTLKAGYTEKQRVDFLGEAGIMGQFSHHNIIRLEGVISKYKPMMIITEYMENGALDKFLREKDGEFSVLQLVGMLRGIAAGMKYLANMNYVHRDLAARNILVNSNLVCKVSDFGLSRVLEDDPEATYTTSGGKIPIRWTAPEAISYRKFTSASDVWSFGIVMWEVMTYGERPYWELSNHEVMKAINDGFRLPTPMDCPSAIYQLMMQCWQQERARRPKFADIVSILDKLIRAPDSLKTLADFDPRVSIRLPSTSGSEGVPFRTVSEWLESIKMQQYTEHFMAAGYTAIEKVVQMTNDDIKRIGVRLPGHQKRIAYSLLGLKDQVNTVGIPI

Row | Structure (SMILES) | EphA2 activation compared to 50 μM Doxazosin [1] | inhibition of colony formation [2] | IC50 [3] [nM] | concentration at which EphA2 internalization happened [4] [µM]
1 | COc1cc2nc(N3CCN(C(=O)c4ccc5ccccc5c4)CC3)nc(N)c2cc1OC [Compound 1, (4-(4-amino-6,7-dimethoxyquinazolin-2-yl)piperazin-1-yl)(naphthalen-2-yl)methanone] | higher activity than compound 3; also recorded: did not show a much higher activity than the lead compound Doxazosin | – | – | –
2 | COc1cc2nc(N3CCN(C(=O)c4cccc(-c5ccccc5)c4)CC3)nc(N)c2cc1OC [Compound 2, [1,1′-biphenyl]-3-yl(4-(4-amino-6,7-dimethoxyquinazolin-2-yl)piperazin-1-yl)methanone] | higher activity than compound 3; also recorded: did not show a much higher activity than the lead compound Doxazosin | – | – | –
3 | COc1cc2nc(N3CCN(C(=O)c4ccc(Cl)c([N+](=O)[O-])c4)CC3)nc(N)c2cc1OC [Compound 13, (4-(4-amino-6,7-dimethoxyquinazolin-2-yl)piperazin-1-yl)(4-chloro-3-nitrophenyl)methanone] | decreases the activity | – | – | –
4 | CCCCCC(=O)N1CCN(c2nc(N)c3cc(OC)c(OC)cc3n2)CC1 [Compound 23, 1-(4-(4-amino-6,7-dimethoxyquinazolin-2-yl)piperazin-1-yl)hexan-1-one] | slightly decreased activity | moderate activity to inhibit the colony formation | – | –
5 | COc1cc2nc(N3CCN(C(=O)Cc4ccc(OCc5ccccc5)cc4)CC3)nc(N)c2cc1OC [Compound 24, 1-(4-(4-amino-6,7-dimethoxyquinazolin-2-yl)piperazin-1-yl)-2-(4-(benzyloxy)phenyl)ethanone] | potent EphA2 activation; also recorded: improved EphA2 activation compared to Doxazosin | slightly weaker activity compared to compound 27; also recorded: inhibit the colony formation | 4.28 ± 3.1 | –
6 | COc1ccc(C(=O)N2CCN(C(=O)c3ccc(OC)cc3)CC2)cc1 [Compound 25, piperazine-1,4-diylbis((4-methoxyphenyl)methanone)] | significantly decreased activity | – | – | –
7 | CSc1ccc(C(=O)N2CCN(C(=O)c3ccc(SC)cc3)CC2)cc1 [Compound 26, piperazine-1,4-diylbis((4-(methylthio)phenyl)methanone)] | significantly decreased activity | – | – | –
8 | COc1cc2nc(N3CCN(C(=O)CCCCCCCCCCC(=O)N4CCN(c5nc(N)c6cc(OC)c(OC)cc6n5)CC4)CC3)nc(N)c2cc1OC [Compound 27, 1,12-bis(4-(4-amino-6,7-dimethoxyquinazolin-2-yl)piperazin-1-yl)dodecane-1,12-dione] | superior activity within the new compound pool; also recorded: significantly increased activity compared to Doxazosin; also recorded: the most active one in the SAR study; also recorded: improved EphA2 activation compared to Doxazosin | inhibited colony formation even at nanomolar concentrations; also recorded: inhibit the colony formation; also recorded: inhibits cancer cell colony formation | 2.5 ± 1.62 | 0.4
9 | COc1cc2nc(N3CCN(C(=O)CCCCC(=O)N4CCN(c5nc(N)c6cc(OC)c(OC)cc6n5)CC4)CC3)nc(N)c2cc1OC [Compound 28, 1,6-bis(4-(4-amino-6,7-dimethoxyquinazolin-2-yl)piperazin-1-yl)hexane-1,6-dione] | does not show any activity to activate EphA2 | – | – | –
10 | COc1cc2nc(N3CCN(C(=O)C4COc5ccccc5O4)CC3)nc(NC(C)=O)c2cc1OC (centres unmarked) [Compound 29, N-(2-(4-(2,3-dihydrobenzo[b][1,4]dioxine-2-carbonyl)piperazin-1-yl)-6,7-dimethoxyquinazolin-4-yl)acetamide] | significantly diminishes the activity | – | – | –
11 | COc1cc2nc(N3CCN(C(=O)Cc4ccc(OCc5ccccc5)cc4)CC3)nc(NC(C)=O)c2cc1OC [Compound 30, N-(2-(4-(2-(4-(benzyloxy)phenyl)acetyl)piperazin-1-yl)-6,7-dimethoxyquinazolin-4-yl)acetamide] | significantly diminishes the activity | – | – | –
12 | COc1cc2nc(N3CCN(C(=O)Cc4ccc(OCc5ccccc5)cc4)CC3)nc(N3CCCCC3)c2cc1OC [Compound 31, 2-(4-(benzyloxy)phenyl)-1-(4-(6,7-dimethoxy-4-(piperidin-1-yl)quinazolin-2-yl)piperazin-1-yl)ethanone] | harm the EphA2 activation | – | – | –
13 | COc1cc2nc(N3CCN(C(=O)Cc4ccc(OCc5ccccc5)cc4)CC3)nc(N3CCCC3)c2cc1OC [Compound 32, 2-(4-(benzyloxy)phenyl)-1-(4-(6,7-dimethoxy-4-(pyrrolidin-1-yl)quinazolin-2-yl)piperazin-1-yl)ethanone] | harm the EphA2 activation | – | – | –
14 | CCOc1cc2nc(N3CCN(C(=O)Cc4ccc(OCc5ccccc5)cc4)CC3)nc(N)c2cc1OCC [Compound 33, 1-(4-(4-amino-6,7-diethoxyquinazolin-2-yl)piperazin-1-yl)-2-(4-(benzyloxy)phenyl)ethanone] | diminishes the activity | – | – | –
